Residues, ends and D or L forms follow the SMILES beside them.
Key:
Format in all cases: physicochemical
[1] = TEM of hydrogel matrix, nanofiber width; conditions: uranyl formate stain, ImageJ, 30 measurements per picture
Protocol: These nanofibers were entangled with one another, forming a 3D‐network that comprised the hydrogel matrix (Figure 4B).
The sample was prepared by placing a drop of peptide solution on a 200‐mesh copper grid (Electron Microscopy China) and allowed to stand for 1.0 min, then blotted with filter paper. Subsequently a drop of 1.0% Uranyl Formate was placed on the grid and allowed to stand for 1–2 min, then blotted with a piece of filter paper and left to air dry. Images were taken with a JEOL JEM‐2100Plus at 80 kV accelerating voltage. By calculating the width of peptide, The image J was used to measure 30 times for 1 TEM picture, and to gather statistics with frequency.^[ [26] ^]

[2] = Hydrogelation test, inverted tube method; conditions: for pH (of hydrogelation) / Conc. (hydrogelation concentration): 37 °C overnight; for Conc. (hydrogelation concentration): pH adjusted with NaOH or HCl
Protocol: We subsequently evaluated their gelation capability (Figure S2, Supporting Information). After purification by HPLC, the obtained compounds were dissolved in water and the pH of the solution was adjusted to trigger self‐assembly and hydrogelation.
Observing gel behavior in an inverted test tube is a rapid and facile approach to determine whether a dissolved peptide formed a gel.
All compounds were placed in a glass tube (diameter 10 mm) and first dissolved in D.I water, sonicated for 5 min and putted on ice for 30 min. Then added 2x PBS buffer (5.4 mM KCl, 20 mM Na2HPO4, 4 mM KH2PO4) or D.I water to reach the final concentration of 1.0 wt%. pH was adjusted with NaOH or HCl. The solutions were stored in 37 °C incubator overnight. Gelation was confirmed by the inverting method.

[3] = Oscillatory rheology, dynamic time sweep; conditions: 37 °C, 15 mm parallel geometry, gap 0.5 mm, G′ consistently higher than G″
Protocol: To further explore the gelation properties and self‐assembly behavior of the candidate self‐assembling molecules, we carried out a series of biophysical characterization experiments.
All rheological experiments were performed on an Anton Parr equipped with a steel 15 mm parallel geometry tool. […] To avoid dehydration, a layer of silicon oil was applied around the edge of the sample at the start of the measurement. Dynamic strain sweep experiments were performed to ensure that the time‐sweep data was collected in the linear regime of strain. The dynamic strain sweep was performed varying the strain from 0.1 to 100% at a constant frequency (6 rad s^−1).

Row | Compound | nanofiber width [1] | pH (of hydrogelation) ([2]; buffer 1X PBS) | Conc. (hydrogelation concentration) ([2]; buffer 1X PBS) [wt%] | storage modulus (G′) at equilibrium [3] | gelation outcome / gel appearance ([2]; in water, pH adjusted (2–12)) | pH (of hydrogelation) ([2]; in water) | Conc. (hydrogelation concentration) ([2]; in water) [wt%]
1 | NC(=O)[C@H](Cc1ccccc1)NC(=O)[C@H](CC(=O)O)NC(=O)CNC(=O)[C@H](CCC(=O)O)NC(=O)[C@H](Cc1ccccc1)NC(=O)[C@H](CCC(=O)O)NC(=O)[C@@H](N)Cc1c[nH]c2ccccc12 [compound 16] (H-WEFEGDF-NH2; N-terminus assumed) | 9–10 nm | 5.0 | 1.0 | 1254 Pa | – | – | –
2 | EYVRFF [compound 368, self-assembling peptide EYVRFF] | – | 3.0 | 1.0 | – | opaque hydrogel | – | –
3 | FFFVF‐NH2 [compound 322, self-assembling peptide FFFVF‐NH2] | approximately 14 nm | – | – | 21,393 Pa | – | 7.0 | 1.0
4 | FYGVF‐NH2 [compound 166, self-assembling peptide FYGVF‐NH2] | ~25 nm | – | – | – | – | 7.0 | 0.5
5 | VKVKAFIDDK [compound 560, self-assembling peptide […]] | – | 8.0 | 1.0 | – | – | – | –
